Columns and labels:
Type in all cases: in vivo
Kochia (Kochia scoparia) [1] = experiment: Test A preemergence; settings: Bassia scoparia, pre-emergence, 240 h, 0 to 100 scale where 0 is no effect and 100 is complete control, read-out: Kochia plant response rating
Outline: (§1)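 Preemergence directed soil spray on seeded pots, or postemergence application to plants 2–10 cm, one- to two-leaf. Solvent mixture non-phytotoxic, with surfactant. Scored ~10 d later, visually, 0–100 vs untreated.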

[2] = test system: barnyardgrass (Echinochloa crus-galli); experiment: Test A preemergence; settings: Echinochloa crus-galli, pre-emergence, 240 h, 0 to 100 scale where 0 is no effect and 100 is complete control, read-out: Barnyardgrass plant response rating
Outline: as §1

[3] = test system: giant foxtail (Setaria faberii); experiment: Test A preemergence; settings: Setaria faberi, pre-emergence, 240 h, 0 to 100 scale where 0 is no effect and 100 is complete control, read-out: Foxtail, Giant plant response rating
Outline: as §1

[4] = test system: pigweed (Amaranthus retroflexus); experiment: Test A preemergence; settings: Amaranthus retroflexus, pre-emergence, 240 h, 0 to 100 scale where 0 is no effect and 100 is complete control, read-out: Pigweed plant response rating
[5] = test system: ragweed (common ragweed, Ambrosia elatior); experiment: Test A preemergence; settings: Ambrosia artemisiifolia, pre-emergence, 240 h, 0 to 100 scale where 0 is no effect and 100 is complete control, read-out: Ragweed plant response rating
Outline: as §1

[6] = test system: ryegrass, Italian (Italian ryegrass, Lolium multiflorum); experiment: Test A preemergence; settings: Lolium multiflorum, pre-emergence, 240 h, 0 to 100 scale where 0 is no effect and 100 is complete control, read-out: Ryegrass, Italian plant response rating
Outline: as §1

[7] = test system: Galium (catchweed bedstraw, Galium aparine); experiment: Test A postemergence; settings: Galium, post-emergence, 240 h
Outline: as §1

Kochia (Kochia scoparia) [8] = experiment: Test A postemergence; settings: Bassia scoparia, post-emergence, 240 h
Outline: as §1

[9] = test system: barnyardgrass (Echinochloa crus-galli); experiment: Test A postemergence; settings: Echinochloa crus-galli, post-emergence, 240 h
Outline: as §1

[10] = test system: blackgrass (Alopecurus myosuroides); experiment: Test A postemergence; settings: Alopecurus myosuroides, post-emergence, 240 h
Outline: as §1

corn (Zea mays) = experiment: Test A postemergence; settings: Zea mays, post-emergence, 240 h
Outline: as §1

[11] = test system: giant foxtail (Setaria faberii); experiment: Test A postemergence; settings: Setaria faberi, post-emergence, 240 h
Outline: as §1

[12] = test system: pigweed (Amaranthus retroflexus); experiment: Test A postemergence; settings: Amaranthus retroflexus, post-emergence, 240 h, 125 g ai/ha, postemergence, visual injury vs untreated controls after approx. 10 d; 0 = no effect, 100 = complete control; read-out: Pigweed plant response rating (0 to 100 scale)
Outline: as §1

[13] = test system: ragweed (common ragweed, Ambrosia elatior); experiment: Test A postemergence; settings: Ambrosia artemisiifolia, post-emergence, 240 h, 125 g ai/ha, postemergence, visual injury vs untreated controls after approx. 10 d; 0 = no effect, 100 = complete control; read-out: Ragweed plant response rating (0 to 100 scale)
Outline: as §1

[14] = test system: ryegrass, Italian (Italian ryegrass, Lolium multiflorum); experiment: Test A postemergence; settings: Lolium multiflorum, post-emergence, 240 h, 125 g ai/ha, postemergence, visual injury vs untreated controls after approx. 10 d; 0 = no effect, 100 = complete control; read-out: Ryegrass, Italian plant response rating (0 to 100 scale)
Outline: as §1

[15] = test system: wheat (Triticum aestivum); experiment: Test A postemergence; settings: Triticum aestivum, post-emergence, 240 h, 125 g ai/ha, postemergence, visual injury vs untreated controls after approx. 10 d; 0 = no effect, 100 = complete control; read-out: Wheat plant response rating (0 to 100 scale)
Outline: as §1

[16] = test system: barnyardgrass (Echinochloa crus-galli); experiment: Test B flooded paddy test; settings: Echinochloa crus-galli, 250 g ai/ha, Flood; 0 to 100 scale where 0 is no effect and 100 is complete control; read-out: Barnyardgrass plant response rating
Outline: (§2)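 Flooding to 3 cm over soil accompanied treatment, which consisted of adding compound to the standing water around 2-leaf plants; depth was then maintained. Visual assessment versus controls followed at 13 to 15 d (scale 0–100, 0 meaning no effect).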

[17] = test system: ducksalad (Heteranthera limosa); experiment: Test B flooded paddy test; settings: Heteranthera limosa, 250 g ai/ha, Flood; 0 to 100 scale where 0 is no effect and 100 is complete control; read-out: Ducksalad plant response rating
Outline: as §2

rice (Oryra sativa) = experiment: Test B flooded paddy test; settings: Oryza sativa, 250 g ai/ha, Flood; 0 to 100 scale where 0 is no effect and 100 is complete control; read-out: Rice plant response rating
Outline: as §2

[18] = test system: sedge, umbrella (small-flower umbrella sedge, Cyperus difformis); experiment: Test B flooded paddy test; settings: Cyperus difformis, 250 g ai/ha, Flood; 0 to 100 scale where 0 is no effect and 100 is complete control; read-out: Sedge, Umbrella plant response rating
Outline: as §2

[19] = 125 g ai/ha, preemergence, approx. 10 d

CN1C[C@H](c2ccc(C(F)(F)F)c(O)c2)[C@@H](C(=O)Nc2cccc(F)c2F)C1=O [Compound 1173]
pest or weed control at 31 g/ha (Kochia (Kochia scoparia) [1]; 31 g ai/ha, Preemergence): 0% | pest or weed control at 125 g/ha (Kochia (Kochia scoparia) [1]; [19]): 20% | pest or weed control at 31 g/ha ([2]; 31 g ai/ha, Preemergence): 60% | pest or weed control at 125 g/ha [2, 19]: 90% | pest or weed control at 31 g/ha ([3]; 31 g ai/ha, Preemergence): 30% | pest or weed control at 125 g/ha [3, 19]: 80% | pest or weed control at 31 g/ha ([4]; 31 g ai/ha, Preemergence): 0% | pest or weed control at 125 g/ha [4, 19]: 0% | pest or weed control at 31 g/ha ([5]; 31 g ai/ha, Preemergence): 0% | pest or weed control at 125 g/ha [5, 19]: 40% | pest or weed control at 31 g/ha ([6]; 31 g ai/ha, Preemergence): 0% | pest or weed control at 125 g/ha [6, 19]: 30% | pest or weed control at 125 g/ha ([7]; 125 g ai/ha, postemergence, visual injury vs untreated controls after approx. 10 d, 0 = no effect, 100 = complete control, read-out: Galium plant response rating (0 to 100 scale)): 50% | pest or weed control at 31 g/ha ([7]; Postemergence, 31 g ai/ha, visual injury after approx. 10 d, 0 to 100 scale, 0 no effect, 100 complete control, read-out: Plant response rating, Galium): 0% | pest or weed control at 125 g/ha (Kochia (Kochia scoparia) [8]; 125 g ai/ha, postemergence, visual injury vs untreated controls after approx. 10 d, 0 = no effect, 100 = complete control, read-out: Kochia plant response rating (0 to 100 scale)): 50% | pest or weed control at 31 g/ha (Kochia (Kochia scoparia) [8]; Postemergence, 31 g ai/ha, visual injury after approx. 10 d, 0 to 100 scale, 0 no effect, 100 complete control, read-out: Plant response rating, Kochia): 30% | pest or weed control at 125 g/ha ([9]; 125 g ai/ha, postemergence, visual injury vs untreated controls after approx. 10 d, 0 = no effect, 100 = complete control, read-out: Barnyardgrass plant response rating (0 to 100 scale)): 70% | pest or weed control at 31 g/ha ([9]; Postemergence, 31 g ai/ha, visual injury after approx. 10 d, 0 to 100 scale, 0 no effect, 100 complete control, read-out: Plant response rating, Barnyardgrass): 50% | pest or weed control at 125 g/ha ([10]; 125 g ai/ha, postemergence, visual injury vs untreated controls after approx. 10 d, 0 = no effect, 100 = complete control, read-out: Blackgrass plant response rating (0 to 100 scale)): 0% | pest or weed control at 31 g/ha ([10]; Postemergence, 31 g ai/ha, visual injury after approx. 10 d, 0 to 100 scale, 0 no effect, 100 complete control, read-out: Plant response rating, Blackgrass): 0% | plant injury at 125 g/ha (corn (Zea mays); 125 g ai/ha, postemergence, visual injury vs untreated controls after approx. 10 d, 0 = no effect, 100 = complete control, read-out: Corn plant response rating (0 to 100 scale)): 0% | Corn plant response rating (crop injury, 0 = no effect, 100 = complete kill) at 31 g/ha (corn (Zea mays); Postemergence, 31 g ai/ha, visual injury after approx. 10 d, 0 to 100 scale, 0 no effect, 100 complete control): 0% | pest or weed control at 125 g/ha ([11]; 125 g ai/ha, postemergence, visual injury vs untreated controls after approx. 10 d, 0 = no effect, 100 = complete control, read-out: Foxtail, Giant plant response rating (0 to 100 scale)): 80% | pest or weed control at 31 g/ha ([11]; Postemergence, 31 g ai/ha, visual injury after approx. 10 d, 0 to 100 scale, 0 no effect, 100 complete control, read-out: Plant response rating, Foxtail, Giant): 70% | pest or weed control at 125 g/ha [12]: 50% | pest or weed control at 125 g/ha [13]: 10% | pest or weed control at 125 g/ha [14]: 20% | plant injury at 125 g/ha [15]: 0% | pest or weed control at 250 g/ha [16]: 60% | pest or weed control at 250 g/ha [17]: 90% | pest or weed control at 250 g/ha (rice (Oryra sativa)): 25% | pest or weed control at 250 g/ha [18]: 0%
